pEC50: −log10 of the molar value. Counter-ions that a name gives are not always drawn.
Molecular target: T1, abc isoform of human TMEM16A channel expressed in CHO cells (Homo sapiens, UniProt Q5XXA6, DEL476-501)
T1 construct: expressed in transfected cells; host or cells: CHO cells, doxycycline-inducible expression under Blasticidin/Zeocin selection
T1 sequence (Q5XXA6 with tags, fused parts or gaps isoform Q5XXA6-5 DEL539-564): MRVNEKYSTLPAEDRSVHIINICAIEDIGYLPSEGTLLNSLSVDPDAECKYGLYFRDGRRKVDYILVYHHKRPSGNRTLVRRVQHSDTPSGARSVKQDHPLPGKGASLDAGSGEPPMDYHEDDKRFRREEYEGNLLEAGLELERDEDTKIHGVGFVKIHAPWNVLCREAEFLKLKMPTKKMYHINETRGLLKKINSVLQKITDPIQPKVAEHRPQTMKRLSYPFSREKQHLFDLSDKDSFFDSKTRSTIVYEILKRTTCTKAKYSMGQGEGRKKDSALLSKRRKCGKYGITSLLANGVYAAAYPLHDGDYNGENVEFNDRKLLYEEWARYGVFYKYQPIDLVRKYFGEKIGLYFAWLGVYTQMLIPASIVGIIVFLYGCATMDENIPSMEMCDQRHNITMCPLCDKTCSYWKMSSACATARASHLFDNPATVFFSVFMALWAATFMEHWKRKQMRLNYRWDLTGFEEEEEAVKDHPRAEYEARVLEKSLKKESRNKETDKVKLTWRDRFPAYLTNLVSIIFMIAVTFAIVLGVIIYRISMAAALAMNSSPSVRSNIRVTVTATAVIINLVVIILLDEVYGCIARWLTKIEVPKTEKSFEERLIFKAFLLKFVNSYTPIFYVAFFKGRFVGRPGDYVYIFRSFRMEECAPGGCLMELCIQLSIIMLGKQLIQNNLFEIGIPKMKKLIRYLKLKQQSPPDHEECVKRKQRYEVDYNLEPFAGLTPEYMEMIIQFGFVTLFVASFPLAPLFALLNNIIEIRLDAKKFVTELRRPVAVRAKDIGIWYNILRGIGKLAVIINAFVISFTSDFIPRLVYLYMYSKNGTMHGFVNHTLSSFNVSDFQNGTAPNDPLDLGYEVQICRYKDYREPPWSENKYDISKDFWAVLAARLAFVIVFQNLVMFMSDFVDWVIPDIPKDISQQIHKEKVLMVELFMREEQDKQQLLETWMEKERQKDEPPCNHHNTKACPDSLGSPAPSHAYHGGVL
Assay: Automated patch clamping (QPatch) assay to measure TMEM16A activity in whole-cell
Format: cell-based
Conditions: for pEC50: CHO cells expressing human TMEM16A (abc), whole-cell automated patch clamp, Hill fit, read-out: TMEM16A QPATCH assay EC50 V3 EC50; for Emax: CHO, read-out: TMEM16A QPATCH assay EC50 V3 Assay Window (% TMEM16A max activation)
Summary of the method: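 Whole-cell currents were recorded by planar automated patch clamp from induced CHO cells (doxycycline 1 μg/mL, 18-24 h), using a −70 mV hold, +70 mV step and −90 to +70 mV ramp. Values: Hill-fitted EC50, and activation scaled between vehicle current and reference-potentiator maximum; 0.3% DMSO final.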

[1] = maximum current at highest dose relative to reference potentiator at maximal concentration (upper limit) and vehicle (lower limit)

| Compound | pEC50 | Emax [1] | TMEM16A QPATCH assay EC50 V3 Assay Window (% TMEM16A max activation) [1] |
| --- | --- | --- | --- |
| CCC(CC)NC(=O)c1cnc(-c2cccc(-c3cc(C(=O)N[C@@H](C)C4CC4)n(CCOC(C)C)n3)c2)o1 [Example 9.0, (S)-2-(3-(5-((1-Cyclopropylethyl)Carbamoyl)-1-(2-Isopropoxyethyl)-1 H-Pyrazol-3-Yl)Phenyl)-N-(Pentan-3-Yl)Oxazole-5-Carboxamide] | 6.82 | 137% | – |
| C[C@H](NC(=O)c1cnc(-c2cccc(-c3nnc(C(=O)NC(C4CC4)C4CC4)[nH]3)c2)o1)C1CC1 [Example 12.7, (S)-N-(1-Cyclopropylethyl)-2-(3-(5-((Dicyclopropylmethyl)Carbamoyl)-4H-1,2,4-Triazol-3-Yl)Phenyl)Oxazole-5-Carboxamide] | 7.70 | 91% | – |
| CCOC(=O)CCCn1nc(-c2cccc(-c3ncc(C(=O)NC(CC)CC)o3)c2)nc1C(=O)NC(CC)CC [Example 15.8, Ethyl 4-(5-(Pentan-3-Ylcarbamoyl)-3-(3-(5-(Pentan-3-Ylcarbamoyl)Oxazol-2-Yl)Phenyl)-1H-1,2,4-Triazol-1-Yl)Butanoate] | 7.05 | 95% | – |
| CCC(CC)NC(=O)c1cc(-c2cccc(-c3ncc(C(=O)N[C@@H](C)C4CC4)o3)c2)[nH]n1 [Example 1.6, (S)-N-(1-Cyclopropylethyl)-2-(3-(3-(Pentan-3-Ylcarbamoyl)-1H-Pyrazol-5-Yl)Phenyl)Oxazole-5-Carboxamide] | 6.89 | 61% | – |
| CCC(CC)NC(=O)c1cc(-c2cccc(-c3ncc(C(=O)N[C@H](C)C4CC4)o3)c2)[nH]n1 [Example 1.40, (R)-N-(1-Cyclopropylethyl)-2-(3-(5-(Pentan-3-Ylcarbamoyl)-1H-Pyrazol-3-yl)Phenyl)Oxazole-5-Carboxamide] | 6.80 | 93% | – |
| CCC(CC)NC(=O)c1cnc(-c2cccc(-c3cc(C(=O)NC(C)(C)C)n[nH]3)c2)o1 [Example 3.43, 2-(3-(3-(Tert-Butylcarbamoyl)-1 H-Pyrazol-5-Yl)Phenyl)-N-(Pentan-3-yl)Oxazole-5-Carboxamide] | 6.89 | 84% | – |
| CCC(CC)NC(=O)c1cnc(-c2cccc(-c3cc(C(=O)NCC4CCC4)n[nH]3)c2)o1 [Example 3.5, 2-(3-(3-((Cyclobutylmethyl)Carbamoyl)-1H-Pyrazol-5-Yl)Phenyl)-N-(Pentan-3-Yl)Oxazole-5-Carboxamide] | 7.40 | 124% | – |
| CCC(CC)NC(=O)c1cnc(-c2cccc(-c3cc(C(=O)N[C@@H](C(=O)OC)c4ccccc4)n[nH]3)c2)o1 [Example 3.65, (R)-Methyl 2-(5-(3-(5-(Pentan-3-Ylcarbamoyl)Oxazol-2-Yl)Phenyl)-1H-Pyrazole-3-Carboxamido)-2-Phenylacetate Trifluoroacetate] | 6.11 | 28% | – |
| COC(=O)[C@@H](NC(=O)c1cnc(-c2cccc(-c3nnc(C(=O)N[C@@H](C)C4CC4)[nH]3)c2)o1)C(C)C [Example 12.3, (S)-Methyl 2-(2-(3-(5-(((S)-1-Cyclopropylethyl)Carbamoyl)-4H-1,2,4-Triazol-3-Yl)Phenyl)Oxazole-5-Carboxamido)-3-Methylbutanoate] | 6.66 | 92% | – |
| CCOC(=O)[C@H](NC(=O)c1cnc(-c2cccc(-c3cc(C(=O)NC(CC)CC)[nH]n3)c2)o1)C(C)C [Example 1.44, (R)-Ethyl 3-Methyl-2-(2-(3-(5-(Pentan-3-Ylcarbamoyl)-1H-Pyrazol-3-yl)Phenyl)Oxazole-5-Carboxamido)Butanoate] | 6.29 | 69% | – |
| CCC(CC)NC(=O)c1cnc(-c2cccc(-c3cc(C(=O)NC(C4CC4)C4CCCO4)n[nH]3)c2)o1 (single isomer, unassigned) [Example 3.4 (i), 2-(3-(3-((Cyclopropyl(Tetrahydrofuran-2-Yl)Methyl)Carbamoyl)-1H-Pyrazol-5-Yl)Phenyl)-N-(Pentan-3-Yl)Oxazole-5-Carboxamide] | 6.15 | – | 90% |
| CCOC(=O)[C@@H](NC(=O)c1cnc(-c2cccc(-c3cc(C(=O)NC(C4CC4)C4CC4)n(CCO)n3)c2)o1)C(C)C [Example 4.4, (S)-Ethyl 2-(2-(3-(5-((Dicyclopropylmethyl)Carbamoyl)-1-(2-Hydroxyethyl)-1 H-Pyrazol-3-Yl)Phenyl)Oxazole-5-Carboxamido)-3-Methylbutanoate] | 6.89 | 172% | – |
| CCC(CC)NC(=O)c1cnc(-c2cccc(-c3cc(C(=O)NC(C)C4CCC4)n[nH]3)c2)o1 (stereo not shown) [Example 3.10, 2-(3-(3-((1-Cyclobutylethyl)Carbamoyl)-1H-Pyrazol-5-Yl)Phenyl)-N-(Pentan-3-Yl)Oxazole-5-Carboxamide] | 7.05 | 95% | – |
| CCC(CC)NC(=O)c1cnc(-c2cccc(-c3cc(C(=O)NC(C)(C)c4ccccc4)n[nH]3)c2)o1 [Example 3.54, N-(Pentan-3-Yl)-2-(3-(3-((2-Phenylpropan-2-Yl)Carbamoyl)-1H-Pyrazol-5-Yl)Phenyl)Oxazole-5-Carboxamide] | 7.22 | 109% | – |
| CCOC(=O)[C@H](NC(=O)c1cnc(-c2cccc(-c3cc(C(=O)NC(CC)CC)n[nH]3)c2)o1)c1ccccc1 [Example 1.28, (R)-Ethyl 2-(2-(3-(3-(Pentan-3-Ylcarbamoyl)-1 H-Pyrazol-5-yl)Phenyl)Oxazole-5-Carboxamido)-2-Phenylacetate] | 6.21 | 84% | – |
| C[C@H](NC(=O)c1nnc(-c2cccc(-c3ncc(C(=O)NC4(C5CC5)CC4)o3)c2)[nH]1)C1CC1 [Example 12.15] | 6.41 | 72% | – |
| CCC(CC)NC(=O)c1cc(-c2cccc(-c3ncc(C(=O)NC(C)(C)C(=O)OC(C)(C)C)o3)c2)[nH]n1 [Example 3.69, Tert-Butyl 2-Methyl-2-(2-(3-(3-(Pentan-3-Ylcarbamoyl)-1H-Pyrazol-5-Yl)Phenyl)Oxazole-5-Carboxamido)Propanoatehexafluorophosphatepropanoate Hexafluorophosphate] | 6.59 | 76% | – |
| CCOC(=O)[C@@H](NC(=O)c1cnc(-c2cccc(-c3cc(C(=O)N[C@@H](CC(C)C)C(=O)OC)n[nH]3)c2)o1)C(C)C [Example 2.1, (S)-Methyl 2-(5-(3-(5-(((S)-1-Ethoxy-3-Methyl-1-Oxobutan-2-yl)Carbamoyl)Oxazol-2-Yl)Phenyl)-1H-Pyrazole-3-Carboxamido)-4-Methylpentanoate] | 7.52 | 83% | – |
| CCC(CC)NC(=O)c1cc(-c2cccc(-c3ncc(C(=O)Nc4ccon4)o3)c2)[nH]n1 [Example 1.30, N-(Isoxazol-3-Yl)-2-(3-(3-(Pentan-3-Ylcarbamoyl)-1 H-Pyrazol-5-yl)Phenyl)Oxazole-5-Carboxamide] | 6.06 | 62% | – |
| CCOC(=O)[C@@H](NC(=O)c1cc(-c2cccc(-c3ncc(C(=O)NC(C4CC4)C4CC4)o3)c2)nn1CC(C)(C)O)C(C)C [Example 10.0, (S)-Ethyl 2-(3-(3-(5-((Dicyclopropylmethyl)Carbamoyl)Oxazol-2-Yl)Phenyl)-1-(2-Hydroxy-2-Methylpropyl)-1 H-Pyrazole-5-Carboxamido)-3-Methylbutanoate] | 7.40 | 116% | – |
| CCC(CC)NC(=O)c1cc(-c2cccc(-c3ncc(C(=O)N[C@H](C)C4CCCCC4)o3)c2)[nH]n1 [Example 1.42, (R)-N-(1-Cyclohexylethyl)-2-(3-(3-(Pentan-3-Ylcarbamoyl)-1 H-Pyrazol-5-yl)Phenyl)Oxazole-5-Carboxamide] | 6.12 | 72% | – |
| C[C@H](NC(=O)c1cnc(-c2cccc(-c3nnc(C(=O)N[C@H](C)C4CC4)[nH]3)c2)o1)C1CC1 [Example 13.0, N-((S)-1-Cyclopropylethyl)-2-(3-(5-(((R)-1-Cyclopropylethyl)Carbamoyl)-4H-1,2,4-Triazol-3-Yl)Phenyl)Oxazole-5-Carboxamide] | 6.51 | 74% | – |
| CCC(CC)NC(=O)c1cnc(-c2cccc(-c3cc(C(=O)N[C@@H](COC(C)(C)C)C(=O)OC(C)(C)C)n[nH]3)c2)o1 [Example 3.61, (S)-Tert-Butyl 3-(Tert-Butoxy)-2-(5-(3-(5-(Pentan-3-Ylcarbamoyl)Oxazol-2-Yl)Phenyl)-1 H-Pyrazole-3-Carboxamido)Propanoate Trifluoroacetate] | 6.89 | 123% | – |

From patent US20220306617A1, “SUBSTITUTED 1,3-PHENYL HETEROARYL DERIVATIVES AND THEIR USE IN THE TREATMENT OF DISEASE” (NOVARTIS AG, priority 2019, published 2022)
